# Measured values as given in paper PMC5897276, “External radiation exposure, excretion, and effective half-life in ^177Lu-PSMA-targeted therapies” (EJNMMI Research, 2018).
# Assays:
# [1] = Whole-body activity measurement with external gamma probe and analysis of excreted activity; format: in vivo, patients; details: for Excreted activity Aex between given time point and previous time point, max / Excreted activity Aex between given time point and previous time point, mean / Excreted activity Aex between given time point and previous time point, min / Overall excreted activity as percentage of administered activity, max / Overall excreted activity as percentage of administered activity, mean / Overall excreted activity as percentage of administered activity, min: 25 patients (Department 2)
# Experimental: The analysis of the excretion of unbound ^177Lu-PSMA ligands and lutetium-177 was performed indirectly by measuring the remaining activity within the body of the patients at different time points with an external gamma probe. This has been proven to be a fast, simple, and robust method to estimate the activity within the body of the patient. The difference compared with the expected activity that can be calculated directly by the physical decay of the administered activity is assumed to be equivalent to the excreted activity.
# The measurements were carried out in Department 2, using a cohort of 25 patients (see Table 1). The whole-body activity was measured at 0 h (before voiding, reference) and approximately at 2, 4, 12, 24, 48, and 72 h after the administration of ^177Lu-PSMA-617.
# The remaining activity AWB in the patient at the given time point ti was determined by the following equation:1 AWBti=CAti⋅CPti/CFP, where cA(ti) and cP(ti) are the count rates (compensated for the background) at the given time point for the anterior and posterior views respectively. CFP is a patient-specific calibration factor based on a baseline measurement of each patient, performed immediately after administration of ^177Lu-PSMA-617 and before the first voiding of the bladder. This factor is calculated according to the following equation:2 CFP=CA0⋅Cp0/AP, where AP is the administered activity. This factor represents the efficiency of the detector for the spatially distributed activity and intrinsically considers the self-attenuation of the γ photons by the body of the patient.
# The excreted activity Aex at the time point ti was calculated as the difference of the whole-body activity at the previous time point ti − 1 (corrected for decay) and the whole-body activity at the time point ti. The whole extracted activity can then be calculated as a summation:3 Aex=∑j=1iAWBti−1e^−ln2/T1/2∙ti−ti−1−AWBti,
# A 3″ × 3″-NaI (Tl) detector (Type 905-4) with multichannel analyzer and software (digiBASE, MAESTRO, Ortec, Oak Ridge, USA) was used as a measurement system. It was calibrated using americium-241, cobalt-57, cesium-137, and iodine-131 test sources, and regular quality checks were carried out. The shielded detector (collimator of 3 cm lead) was positioned 1 m above the floor, and the field of view covered the whole body of the patient. The energy window was set to 208 keV ± 27%, corresponding to approximately 3 × full width at half maximum of the energy resolution of the NaI (Tl) detector. The background was measured for 300 s without the presence of a patient. Patients were measured in anterior and posterior standing positions while holding arms close to the body at a distance of 2 m from the collimator surface. For all measurements, the acquisition time corrected for dead-time effects was set to 90 s. […] No further corrections (e.g., for pile-up or non-linearity) were applied. Statistical uncertainties of the count rate were below 1% for all measurements, as recommended by Hindorf et al.. Bi-exponential functions were fitted to the data, and the effective half-lives were calculated. The bi-exponential fit model was chosen after comparing the quality of fit of mono- and bi-exponential models using the Akaike criterion as described by Kletting et al..
# [2] = design: method as in PMID 27089552; details: group of 7 patients; cited from earlier work
structure (smiles),measurement,setting,value
O=C([O-])CN1CCN(CC(=O)[O-])CCN(CC(=O)NCC2CCC(C(=O)N[C@@H](Cc3ccc4ccccc4c3)C(=O)NCCCC[C@H](NC(=O)N[C@@H](CCC(=O)O)C(=O)O)C(=O)O)CC2)CCN(CC(=O)[O-])CC1.[177Lu+3] (stereo partly shown) [^177Lu-PSMA-617],"Excreted activity Aex between given time point and previous time point, max",[1]; 2 h p. i.,2621 MBq
same,"Excreted activity Aex between given time point and previous time point, mean",[1]; 2 h p. i.,1718 MBq
same,"Excreted activity Aex between given time point and previous time point, min",[1]; 2 h p. i.,735 MBq
same,"Overall excreted activity as percentage of administered activity, max",[1]; 2 h p. i.,42%
same,"Overall excreted activity as percentage of administered activity, mean",[1]; 2 h p. i.,30%
same,"Overall excreted activity as percentage of administered activity, min",[1]; 2 h p. i.,13%
same,"Excreted activity Aex between given time point and previous time point, max",[1]; 4 h p. i.,1526 MBq
same,"Excreted activity Aex between given time point and previous time point, mean",[1]; 4 h p. i.,1265 MBq
same,"Excreted activity Aex between given time point and previous time point, min",[1]; 4 h p. i.,1060 MBq
same,"Overall excreted activity as percentage of administered activity, max",[1]; 4 h p. i.,62%
same,"Overall excreted activity as percentage of administered activity, min",[1]; 4 h p. i.,30%
same,"Excreted activity Aex between given time point and previous time point, max",[1]; 12 h p. i.,1323 MBq
same,"Excreted activity Aex between given time point and previous time point, mean",[1]; 12 h p. i.,1155 MBq
same,"Excreted activity Aex between given time point and previous time point, min",[1]; 12 h p. i.,1009 MBq
same,"Overall excreted activity as percentage of administered activity, max",[1]; 12 h p. i.,82%
same,"Overall excreted activity as percentage of administered activity, min",[1]; 12 h p. i.,48%
same,"Excreted activity Aex between given time point and previous time point, max",[1]; 24 h p. i.,474 MBq
same,"Excreted activity Aex between given time point and previous time point, mean",[1]; 24 h p. i.,395 MBq
same,"Excreted activity Aex between given time point and previous time point, min",[1]; 24 h p. i.,318 MBq
same,"Overall excreted activity as percentage of administered activity, max",[1]; 24 h p. i.,87%
same,"Overall excreted activity as percentage of administered activity, mean",[1]; 24 h p. i.,76%
same,"Overall excreted activity as percentage of administered activity, min",[1]; 24 h p. i.,53%
same,"Excreted activity Aex between given time point and previous time point, max",[1]; 48 h p. i.,265 MBq
same,"Excreted activity Aex between given time point and previous time point, mean",[1]; 48 h p. i.,219 MBq
same,"Excreted activity Aex between given time point and previous time point, min",[1]; 48 h p. i.,160 MBq
same,"Overall excreted activity as percentage of administered activity, max",[1]; 48 h p. i.,89%
same,"Overall excreted activity as percentage of administered activity, mean",[1]; 48 h p. i.,77%
same,"Overall excreted activity as percentage of administered activity, min",[1]; 48 h p. i.,50%
same,"Excreted activity Aex between given time point and previous time point, max",[1]; 72 h p. i.,82 MBq
same,"Excreted activity Aex between given time point and previous time point, mean",[1]; 72 h p. i.,68 MBq
same,"Excreted activity Aex between given time point and previous time point, min",[1]; 72 h p. i.,50 MBq
same,"Overall excreted activity as percentage of administered activity, max",[1]; 72 h p. i.,89%
same,"Overall excreted activity as percentage of administered activity, mean",[1]; 72 h p. i.,78%
same,"Overall excreted activity as percentage of administered activity, min",[1]; 72 h p. i.,54%
same,Clearance of the unbound compound from the body,[1]; in words,rapidly cleared from the body
same,"Excreted activity over a period of 72 h (per therapy cycle and patient), average","[1]; of the administered 6.6 GBq, patient cohort 2",approximately 4.8 GBq
same,"Administered activity excreted within the first 6 h, mean",[2],45%
